Source: ChEMBL document CHEMBL4020815 (J Med Chem, 2017)
In brackets after ≈: the same amount, converted by molar mass.

Columns and labels:
[1] = biological target: T1, Bifunctional purine biosynthesis protein ATIC (Homo sapiens, UniProt P31939); assay: Inhibition of AICARFT in human NCI-H460 cells assessed as increase in ZMP levels using low folate media after 16 hrs by LC-MS method; type: cell-based
[2] = Fraction unbound in CD-1 mouse plasma; type: ADME, cell-free
[3] = biological target: T1, Bifunctional purine biosynthesis protein ATIC; assay: Inhibition of human full length N-terminal His-tagged AICARFT expressed in Escherichia coli BL21 (DE3) using ZMP/10-formyltetrahydrofolate as substrate assessed as decrease in IMP levels after 1 hr by mass spectrometric method
[4] = Plasma concentration in CD-1 mouse at 10 mg/kg, po after 1 hr by LC-MS/MS method; type: ADME, organism-based
[5] = Permeability across apical to basolateral side in MDCK cells at 20 uM; type: ADME, cell-based, Canis lupus familiaris; conditions: dog
Mus musculus [6] = assay: Unbound Cmax in CD-1 mouse at 5 mg/kg, po by LC-MS/MS method; type: ADME, organism-based; conditions: in vivo
[7] = Half life in CD-1 mouse at 5 mg/kg, po by LC-MS/MS method; type: ADME, organism-based; conditions: in vivo
Mus musculus [8] = assay: Unbound AUC in CD-1 mouse at 5 mg/kg, po by LC-MS/MS method; type: ADME, organism-based; conditions: in vivo
Mus musculus [9] = assay: Unbound clearance in CD-1 mouse at 5 mg/kg, iv by LC-MS/MS method; type: ADME, organism-based; conditions: in vivo
Mus musculus [10] = assay: Unbound volume of distribution at steady state in CD-1 mouse at 5 mg/kg, iv by LC-MS/MS method; type: ADME, organism-based; conditions: in vivo
[11] = Oral bioavailability in CD-1 mouse at 5 mg/kg by LC-MS/MS method; type: ADME, organism-based; conditions: in vivo
Mus musculus [12] = assay: Toxicity in athymic nude mouse xenografted with human MDA-MB-231met2 cells assessed as mortality at 5 mg/kg, iv qd administered for 5 days; type: organism-based; conditions: in vivo, 120 h
[13] = Antitumor activity against human MDA-MB-231met2 cells xenografted in athymic nude mouse assessed as tumor volume at 5 mg/kg, iv qd administered for 5 days measured after 9 days relative to control; type: functional
Mus musculus [14] = assay: Toxicity in athymic nude mouse xenografted with human MDA-MB-231met2 cells assessed as body weight loss at 5 mg/kg, iv qd administered for 5 days; type: organism-based; conditions: in vivo, 120 h
[15] = biological target: T1, Bifunctional purine biosynthesis protein ATIC; assay: Inhibition of human AICARFT
Mus musculus [16] = assay: In vivo inhibition of AICARFT in tumor of low folate diet fed nude mouse xenografted with human NCI-H460 cells assessed as increase in intratumoral ZMP levels at 0.3 to 30 mg/kg after 4 hrs relative to vehicle-treated control; type: functional
Mus musculus [17] = assay: In vivo inhibition of AICARFT in tumor of low folate diet fed nude mouse xenografted with human NCI-H460 cells assessed as increase in circulating AICAr levels at 0.3 to 30 mg/kg after 4 hrs relative to vehicle-treated control; type: functional
[18] = Clearance in CD-1 mouse at 1 mg/kg, iv by LC-MS/MS method; type: ADME, organism-based; conditions: in vivo
[19] = Equilibrium aqueous solubility of the compound at pH 7.5 after 20 hrs by HPLC method; type: physicochemical
[20] = Dissociation constant, pKa of the compound; type: physicochemical
[21] = Equilibrium aqueous solubility of the compound at pH 6 after 20 hrs by HPLC method; type: physicochemical
[22] = Oral bioavailability in CD-1 mouse at 10 mg/kg by LC-MS/MS method; type: ADME, organism-based; conditions: in vivo
[23] = Lipophilicity, log D of the compound at pH 7; type: physicochemical; conditions: buffer
[24] = AUC in CD-1 mouse at 10 mg/kg, po by LC-MS/MS method; type: ADME, organism-based; conditions: in vivo
[25] = Equilibrium aqueous solubility of the compound at pH 2 after 20 hrs by HPLC method; type: physicochemical

T1 sequence (P31939 whole entry): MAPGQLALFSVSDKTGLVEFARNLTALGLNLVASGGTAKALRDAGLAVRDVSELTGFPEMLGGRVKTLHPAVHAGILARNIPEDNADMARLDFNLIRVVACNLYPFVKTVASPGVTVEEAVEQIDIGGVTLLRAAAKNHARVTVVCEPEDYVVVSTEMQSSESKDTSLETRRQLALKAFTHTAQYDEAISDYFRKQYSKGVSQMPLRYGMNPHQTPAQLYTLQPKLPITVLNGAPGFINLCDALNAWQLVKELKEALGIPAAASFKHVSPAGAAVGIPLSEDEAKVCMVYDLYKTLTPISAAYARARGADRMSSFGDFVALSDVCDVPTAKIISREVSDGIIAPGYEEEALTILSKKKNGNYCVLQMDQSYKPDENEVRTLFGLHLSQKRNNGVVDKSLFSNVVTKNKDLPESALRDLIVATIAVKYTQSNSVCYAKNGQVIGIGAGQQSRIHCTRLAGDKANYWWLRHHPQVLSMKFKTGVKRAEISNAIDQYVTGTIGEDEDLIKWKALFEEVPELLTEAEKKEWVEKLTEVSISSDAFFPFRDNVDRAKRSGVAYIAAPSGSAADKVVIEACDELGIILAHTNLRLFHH

| SMILES | EC50 [1] | fraction unbound [2] | IC50 [3] | concentration at 1 h [4] | permeability [5] | other results |
| --- | --- | --- | --- | --- | --- | --- |
| O=C1NC(=O)c2cc(NS(=O)(=O)c3ccc(Cl)cc3)ccc21 | – | – | 34800 nM | – | – | – |
| O=c1[nH]ccc2cc(F)c(NS(=O)(=O)c3ccc(N4C[C@@H](F)[C@@H](O)C4)s3)cc12 (stereo in doubt) | 17 nM | 0.05 | 20 nM | 12 µM | 0.17% | – |
| O=c1[nH]ccc2cc(F)c(NS(=O)(=O)c3ccc(N4CCC[C@H](O)C4)s3)cc12 | 18 nM | 0.03 | 18 nM | 6.7 µM | 0.17% | – |
| N#Cc1ccc(S(=O)(=O)Nc2cccc(C(N)=O)c2)cc1 | – | – | 90000 nM | – | – | – |
| CN(Cc1cnc2nc(N)nc(N)c2n1)c1ccc(C(=O)N[C@@H](CCC(=O)O)C(=O)O)cc1 [METHOTREXATE] | – | – | – | – | – | Activity (Mus musculus [12]): Non-Toxic; Activity [13]: 88%; Activity (Mus musculus [14]): Non-Toxic |
| Nc1nc2ccc(NS(=O)(=O)c3ccc(C(=O)N[C@@H](CCC(=O)O)C(=O)O)cc3)cc2c(=O)[nH]1 | – | – | 1000 to 5000 nM | – | – | Ki [15]: 6 nM |
| N#Cc1ccc(S(=O)(=O)Nc2cc3c(=O)[nH]ccc3cc2F)cc1 | 1810 nM | – | 723 nM | – | 0.35% | clearance [18]: 2.34 mL/min/kg; solubility thermodynamic at 20 h [19]: 230 µg/mL (≈ 670 µM); pKa [20]: 5.97; solubility thermodynamic at 20 h [21]: 20 µg/mL (≈ 58.3 µM); bioavailability [22]: 79%; logD [23]: 0.6; AUC [24]: 55800 ng·h/mL; solubility thermodynamic at 20 h [25]: 10 µg/mL (≈ 29.1 µM) |
| O=c1[nH]ccc2cc(F)c(NS(=O)(=O)c3ccc(N4CC[C@H](O)C4)s3)cc12 | – | 0.05 | – | 4.7 µM | 0.29% | – |
| N#Cc1ccc(S(=O)(=O)Nc2ccccc2)cc1 | – | – | > 100000 nM | – | – | – |
| N#Cc1ccc(S(=O)(=O)Nc2ccc3nc(N)[nH]c(=O)c3c2)cc1 | – | – | 18100 nM | – | – | – |
| N#Cc1ccc(S(=O)(=O)Nc2ccc3cc[nH]c(=O)c3c2)cc1 | 567 nM | – | 608 nM | – | 0.55% | clearance [18]: 4.47 mL/min/kg; solubility thermodynamic at 20 h [19]: 160 µg/mL (≈ 492 µM); pKa [20]: 6.93; solubility thermodynamic at 20 h [21]: 40 µg/mL (≈ 123 µM); bioavailability [22]: 43%; logD [23]: 1.7; AUC [24]: 16100 ng·h/mL; solubility thermodynamic at 20 h [25]: 30 µg/mL (≈ 92.2 µM) |
| O=c1[nH]ccc2cc(F)c(NS(=O)(=O)c3ccc(N4CCC[C@@H](O)C4)s3)cc12 | 68 nM | 0.03 | 26 nM | 1.7 µM | 0.17% | – |

Further lines, with some results ahead:

| EC50 [1] | fraction unbound [2] | IC50 [3] | concentration at 1 h [4] | permeability [5] | SMILES | other results |
| --- | --- | --- | --- | --- | --- | --- |
| 31 nM | 0.02 | 13 nM | 19.3 µM | 0.34% | O=c1[nH]ccc2cc(F)c(NS(=O)(=O)c3ccc(N4C[C@H](O)C(F)(F)C4)s3)cc12 | – |
| 10 nM | < 0.02 | < 5 nM | 30.6 µM | 0.09% | CC1(C)CC(c2ccc(S(=O)(=O)Nc3cc4c(=O)[nH]ccc4cc3F)s2)=CNC1=O | fCmax (Mus musculus [6]): 187 nM; half-life [7]: 5.2 h; fAUC (Mus musculus [8]): 2.159 µM·h; CL free (Mus musculus [9]): 19 mL/min/kg; Vduss (Mus musculus [10]): 9 L/kg; bioavailability [11]: 23% |
| 21 nM | 0.05 | 13 nM | 4 µM | 0.25% | O=c1[nH]ccc2cc(F)c(NS(=O)(=O)c3ccc(N4CCC(O)CC4)s3)cc12 | – |
| 62 nM | 0.05 | < 5 nM | 1.7 µM | 0.09% | O=c1ccc(-c2ccc(S(=O)(=O)Nc3cc4c(=O)[nH]ccc4cc3F)s2)c[nH]1 | – |
| 4 nM | < 0.03 | < 5 nM | 10.5 µM | – | CCC1(C)CC(c2ccc(S(=O)(=O)Nc3cc4c(=O)[nH]ccc4cc3F)s2)=CNC1=O (stereo not given) | – |
| 27 nM | 0.03 | 12 nM | 33 µM | 0.28% | O=c1[nH]ccc2cc(F)c(NS(=O)(=O)c3ccc(N4C[C@@H](O)C(F)(F)C4)s3)cc12 | fCmax (Mus musculus [6]): 293 nM; half-life [7]: 3.2 h; fold change (FC) (Mus musculus [16]): >100; fold change (FC) (Mus musculus [17]): 80; fAUC (Mus musculus [8]): 2.11 µM·h; CL free (Mus musculus [9]): 50 mL/min/kg; Vduss (Mus musculus [10]): 15 L/kg; bioavailability [11]: 55% |
| 7.9 nM | 0.05 | 7.8 nM | 9.1 µM | 0.18% | O=c1[nH]ccc2cc(F)c(NS(=O)(=O)c3ccc(N4C[C@@H](O)[C@@H](F)C4)s3)cc12 (stereo in doubt) | fCmax (Mus musculus [6]): 232 nM; half-life [7]: 2.8 h; fold change (FC) (Mus musculus [16]): >100; fold change (FC) (Mus musculus [17]): 80; fAUC (Mus musculus [8]): 1.52 µM·h; CL free (Mus musculus [9]): 44 mL/min/kg; Vduss (Mus musculus [10]): 9 L/kg; bioavailability [11]: 33% |
